Molecules are shown by their SMILES.

`COC(=O)C(=Cc1ccc(I)o1)[N+](=O)[O-]` came in with a logP of 3.
As for `CC(C)CNC(=O)C=Cc1ccc([N+](=O)[O-])o1`, the figure is 2.23.
The value for `CCOC(=O)C=Cc1ccc([N+](=O)[O-])o1` was 2.1; that for `N#CC=Cc1ccc([N+](=O)[O-])o1` was 1.05.
In turn, `CCCNC(=O)C=Cc1ccc([N+](=O)[O-])o1` gave a lipophilicity (logP) of 1.86.
The value for `CCC(C)OC(=O)C=Cc1ccc([N+](=O)[O-])o1` (stereo unspecified) was 3.09; that for `COC(=O)C=Cc1ccc([N+](=O)[O-])o1` was 1.65; that for `CNC(=O)C=Cc1ccc([N+](=O)[O-])o1` was 0.98.
The value for `O=[N+]([O-])c1ccc(C=CBr)o1` was 2.45.
As for `CCC(C)NC(=O)C=Cc1ccc([N+](=O)[O-])o1` (stereo unspecified), the figure is 2.28; as for `COC(=O)C(=Cc1ccc(C)o1)[N+](=O)[O-]`, 2.44; as for `O=[N+]([O-])C=Cc1ccc([N+](=O)[O-])o1`, 1.3.
Regarding `COC(=O)C(=Cc1ccc([N+](=O)[O-])o1)[N+](=O)[O-]`, the logP was 1.6.
The value for `CCCCNC(=O)C=Cc1ccc([N+](=O)[O-])o1` was 2.36; that for `COC(=O)C(=Cc1ccco1)[N+](=O)[O-]` was 1.88.
`O=[N+]([O-])c1ccc(C=CS(=O)(=O)c2ccccc2)o1` came in with a logP of 1.88.
As for `COC(=O)C(=Cc1ccc(Br)o1)[N+](=O)[O-]`, the figure is 2.74.
The value for `CC(C)(C)NC(=O)C=Cc1ccc([N+](=O)[O-])o1` was 2.33; that for `CCNC(=O)C=Cc1ccc([N+](=O)[O-])o1` was 1.39; that for `CC(C)COC(=O)C=Cc1ccc([N+](=O)[O-])o1` was 3.14.
As for `CCOC(=O)C(=Cc1ccc([N+](=O)[O-])o1)C(=O)OCC`, the figure is 2.5.
`CCCCCOC(=O)C=Cc1ccc([N+](=O)[O-])o1`: the logP is 3.4.
In turn, `CCCCOC(=O)C=Cc1ccc([N+](=O)[O-])o1` returned a logP of 2.83.
As for `C=Cc1ccc([N+](=O)[O-])o1`, the figure is 1.61.
As for `CN(C)C(=O)C=Cc1ccc([N+](=O)[O-])o1`, the figure is 0.82; as for `CC(C)(C)CNC(=O)C=Cc1ccc([N+](=O)[O-])o1`, 2.61; as for `CCCOC(=O)C=Cc1ccc([N+](=O)[O-])o1`, 2.67.
As for `CC(C)(C)OC(=O)C=Cc1ccc([N+](=O)[O-])o1`, the figure is 3.06.
`O=C(O)C=Cc1ccc([N+](=O)[O-])o1` showed a logP of 0.68.
The value for `CC(C)OC(=O)C=Cc1ccc([N+](=O)[O-])o1` was 2.64; that for `COC(=O)C(=Cc1ccc(C(=O)OC)o1)[N+](=O)[O-]` was 1.87.

By logP is commonly meant the decadic logarithm of the partition coefficient of the neutral form, usually between octanol and water. Read a high logP as higher lipophilicity.

The values are drawn from the OPERA property sets (Mansouri et al. 2018).
